Measurements reported in publication PMC12892976, “Alkylation-based optimization of antifungal FPPS inhibitors yields a potent, broad-spectrum lipophilic zoledronate derivative” (mBio, 2025).
≈ marks a conversion by molar mass, not a printed value.

Legend:
A. fumigatus [1] = test: membrane fluidity, TMA-DPH anisotropy; assay type: cell-based, Aspergillus fumigatus
Description: (§1) Candida albicans cells were incubated for 6 h, and C. neoformans cells were incubated for 9 h at 30°C, washed, then labeled with 2 µM TMA-DPH in PBS for 10 min. […] Mycelia were fixed, and protoplasts were prepared as described previously ([50]). Protoplasts were washed twice and labeled with 2 µM TMA-DPH in PBS for 30 min. For all labeled cultures, parallel and perpendicular fluorescence intensities were measured at 440 nm in a CLARIOstar plate reader (BMG Labtech), and anisotropy was calculated.

Cryptococcus neoformans = test: time-kill assay; assay type: cell-based; conditions: 1× MIC, C. neoformans
Description: (§2) Cultures were incubated at 37°C with shaking at 200 rpm. Aliquots were withdrawn at 12, 24, 36, and 48 h post-treatment for both species, and additionally at 60 and 72 h for C. neoformans, then back-plated onto SDA. Viable cell counts were obtained after 48 h.

Candida albicans = test: time-kill assay; assay type: cell-based; conditions: 2× MIC, C. albicans
Description: as §2

TNF-α = test system: TNF-α; parameters: method as in PMID 23610597; conditions: cited from earlier work
fungal biofilms = test: biofilm XTT assay, summary across all biofilms tested; conditions: alone
C. albicans [2] = test: ergosterol quantitation; assay type: cell-based, Candida albicans; conditions: 1× MIC vs no-drug control
Description: (§3) Treated cultures were incubated at 30°C with shaking for 18 h for C. albicans and A. fumigatus and for 32 h for C. neoformans. Cell membrane ergosterol was then extracted and quantified as described previously ([48]).

C. neoformans [3] = test: membrane fluidity, TMA-DPH anisotropy; assay type: cell-based, Cryptococcus neoformans
Description: as §1

A. fumigatus [4] = test: ergosterol quantitation; assay type: cell-based, Aspergillus fumigatus; conditions: 1× MIC vs no-drug control
Description: as §3

C. neoformans [5] = test: membrane depolarization, diS-C3(3); assay type: cell-based, Cryptococcus neoformans; conditions: diS-C3(3) emission maximum
Description: (§4) Membrane depolarization was determined using potential-sensitive fluorophore diS-C3(3) (Sigma), as described previously ([51]). Yeast cells and A. fumigatus conidia were treated as described above, then washed with citrate phosphate buffer and labeled with 20 nM diS-C3(3) at a final concentration of 10^6 cells/mL for yeasts and 10^4 conidia/mL for Aspergillus. Cells were transferred to a microplate (Invitrogen), then emission spectra between 560 and 585 nm (λexcitation = 531 nm) were obtained every 12 min for 1 h using a CLARIOstar plate reader (BMG Labtech). The emission λmax was determined at each timepoint.

Bacillus subtilis = test: antibacterial MIC; assay type: cell-based
Description: (§5) […]; Table S3). […]. […] […].

Streptococcus pyogenes = test: antibacterial MIC; assay type: cell-based
Description: as §5

Streptococcus pneumoniae = test: antibacterial MIC; assay type: cell-based
Description: as §5

Enterobacter aerogenes = test: antibacterial MIC; assay type: cell-based; conditions: Klebsiella aerogenes
Description: as §5

Escherichia coli = test: antibacterial MIC; assay type: cell-based
Description: as §5

Staphylococcus aureus = test: antibacterial MIC; assay type: cell-based
Description: as §5

Acinetobacter baumanii = test: antibacterial MIC; assay type: cell-based; conditions: Acinetobacter baumannii
Description: as §5

Klebsiella pneumoniae = test: antibacterial MIC; assay type: cell-based
Description: as §5

Salmonella Typhimurium = test: antibacterial MIC; assay type: cell-based; conditions: Salmonella enterica
Description: as §5

Proteus vulgaris = test: antibacterial MIC; assay type: cell-based
Description: as §5

Enterococcus faecalis = test: antibacterial MIC; assay type: cell-based
Description: as §5

Pseudomonas aeruginosa = test: antibacterial MIC; assay type: cell-based
Description: as §5

C. albicans [6] = test: lipid peroxidation, TBARS assay (MDA); assay type: cell-based, Candida albicans
Description: (§6) Cultures were incubated overnight, pelleted, and resuspended in 1 mL ice-cold PBS. Malondialdehyde (MDA) was extracted and quantified using a TBARS assay kit (Cayman Chemical #700870) according to the manufacturer’s instructions. MDA was normalized to total protein content in cell lysates.

C. albicans [7] = test: membrane depolarization, diS-C3(3); assay type: cell-based, Candida albicans; conditions: diS-C3(3) emission maximum
Description: as §4

C. neoformans infection = test: Galleria mellonella survival assay; assay type: in vivo
Description: (§7) Galleria mellonella larvae were reared and prepared as described previously ([53]). Larvae (n = 12 per treatment) were each inoculated with 10^5 spores or cells of A. fumigatus, C. albicans, or C. neoformans in 10 µL of PBS. […] Treated larvae were incubated at 37°C, and mortality was evaluated every day for 10 days.

A. fumigatus infection = test: Galleria mellonella survival assay; assay type: in vivo
Description: as §7

A. fumigatus [8] = test: membrane depolarization, diS-C3(3); assay type: cell-based, Aspergillus fumigatus; conditions: diS-C3(3) emission maximum
Description: as §4

C. neoformans [9] = test: ergosterol quantitation; assay type: cell-based, Cryptococcus neoformans; conditions: 1× MIC vs no-drug control
Description: as §3

A. fumigatus [10] = test: lipid peroxidation, TBARS assay (MDA); assay type: cell-based, Aspergillus fumigatus
Description: as §6

C. albicans [11] = test: membrane permeabilization, nucleic acid leakage; assay type: cell-based, Candida albicans
Description: (§8) Membrane permeabilization was determined by measuring the leakage of nucleic acid into the supernatant ([19]). […] Suspensions were incubated at 30°C with shaking at 200 rpm for 6 h, then passed through a 0.45 µm syringe filter. The A260 of each filtrate was measured with a DS-11 FX +benchtop spectrophotometer (DeNovix).

C. neoformans [12] = test: membrane permeabilization, nucleic acid leakage; assay type: cell-based, Cryptococcus neoformans
Description: as §8

A. fumigatus [13] = test: ROS accumulation, DCFDA; assay type: cell-based, Aspergillus fumigatus
Description: All cultures were incubated for 6 h and then labeled with 20 µM DCFDA in PBS for 30 min. Labeled cultures were transferred into a microplate, and fluorescence intensity was measured using a CLARIOstar plate reader (BMG Labtech).

C. neoformans [14] = test: lipid peroxidation, TBARS assay (MDA); assay type: cell-based, Cryptococcus neoformans
Description: as §6

[15] = test system: 12 pathogenic bacterial species; test: antibacterial MIC, summary of 12 pathogenic bacterial species; assay type: cell-based
Description: as §5

CCCCCCCCCCn1cc[n+](CC(O)(P(=O)(O)O)P(=O)(O)O)c1 [10-ZOL, Decyl-zoledronate]
concentration from which anisotropy differs significantly from no-drug control (A. fumigatus [1]): 2 × MIC
time at which viable cell count is significantly decreased from starting inoculum (Cryptococcus neoformans): 24 h
time at which viable cell count is significantly decreased from starting inoculum (Candida albicans): 12 h
TNF-α release (TNF-α): stimulate the release of TNF-α
SIC80 range (fungal biofilms): 8 to 128 µg/mL
membrane ergosterol content (C. albicans [2]): significant depletion of membrane ergosterol
concentration from which anisotropy differs significantly from no-drug control (C. neoformans [3]): 1 × MIC
membrane ergosterol content (A. fumigatus [4]): significant depletion of membrane ergosterol
membrane depolarization (C. neoformans [5]): dose-dependent depolarization effect
MIC (Bacillus subtilis): > 16 mg/L
MIC (Streptococcus pyogenes): 16 mg/L
MIC (Streptococcus pneumoniae): 16 mg/L
MIC (Enterobacter aerogenes): 16 mg/L
MIC (Escherichia coli): 16 mg/L
MIC (Staphylococcus aureus): 16 mg/L
MIC (Acinetobacter baumanii): > 16 mg/L
MIC (Klebsiella pneumoniae): 16 mg/L
MIC (Salmonella Typhimurium): > 16 mg/L
MIC (Proteus vulgaris): > 16 mg/L
MIC (Enterococcus faecalis): 16 mg/L
MIC (Pseudomonas aeruginosa): > 16 mg/L
concentration at which lipid peroxidation increase became significant (C. albicans [6]): 1 × MIC
membrane depolarization (C. albicans [7]): dose-dependent depolarization effect
survival compared with […] AMB (C. neoformans infection; 64 µg/mL): outperformed AMB
larval mortality vs no-drug control (C. neoformans infection; single infusion of 64 µg/mL): significantly reduced mortality
survival compared with […] AMB (A. fumigatus infection; 64 µg/mL): no significant difference in survival
larval mortality vs no-drug control (A. fumigatus infection; single infusion of 64 µg/mL): significantly reduced mortality
membrane depolarization (A. fumigatus [8]): dose-dependent depolarization effect
membrane ergosterol content (C. neoformans [9]): significant depletion of membrane ergosterol
concentration at which lipid peroxidation increase became significant (A. fumigatus [10]): 2 × MIC
concentration giving significant increase in leaked nucleic acid (C. albicans [11]): ≥ 1 × MIC
concentration giving significant increase in leaked nucleic acid (C. neoformans [12]): ≥ 1 × MIC
concentration at which ROS (DCFDA fluorescence) increase became significant (A. fumigatus [13]): 2 × MIC
concentration at which lipid peroxidation increase became significant (C. neoformans [14]): 1 × MIC
antibacterial activity [15]: limited or no antibacterial activity

O=P(O)(O)C(O)(Cn1ccnc1)P(=O)(O)O [ZOL, zoledronate]
MIC (Bacillus subtilis): 256 mg/L (≈ 941 µM)
MIC (Streptococcus pyogenes): 256 mg/L (≈ 941 µM)
MIC (Streptococcus pneumoniae): > 256 mg/L
MIC (Enterobacter aerogenes): > 256 mg/L
MIC (Escherichia coli): 256 mg/L (≈ 941 µM)
MIC (Staphylococcus aureus): 256 mg/L (≈ 941 µM)
MIC (Acinetobacter baumanii): > 256 mg/L
MIC (Klebsiella pneumoniae): 256 mg/L (≈ 941 µM)
MIC (Salmonella Typhimurium): 256 mg/L (≈ 941 µM)
MIC (Proteus vulgaris): 128 mg/L (≈ 470 µM)
MIC (Enterococcus faecalis): 256 mg/L (≈ 941 µM)
MIC (Pseudomonas aeruginosa): > 256 mg/L
